In patent publication US12653911B2, “Stimuli-responsive nanoparticles for biomedical applications” (The Brigham and Women's Hospital, Inc., priority 2016, dated 2026):

Assay: Acid-base titration of the polymers (pKa)
Format: physicochemical
Experimental: (§1) Meo-PEG-b-P(DPA-co-GMA-TEPA-C14) was dispersed in deionized water, and a concentrated HCl aqueous solution was added until complete dissolution of the copolymer (1 mg/mL). Subsequently, 1 M NaOH aqueous solution was added in 1-5 μL increments. After each addition, the solution was constantly stirred for 3 min, and the solution pH was measured using a pH meter.
as §1, with “Meo-PEG-b-P(DPA-co-GMA-Rn)” for “Meo-PEG-b-P(DPA-co-GMA-TEPA-C14)”, “until” for “until complete dissolution of”, “copolymer was completely dissolved” for “copolymer”
Subsequently, 1 M NaOH aqueous solution was added in 1-5 μL increments. After each addition, the solution was constantly stirred for 3 min, and the solution pH was measured using a pH meter.

Substance	pKa of polymer	pKa
Meo-PEG-b-P(DPA-co-GMA) [PDPA50-GMA5]		6.31
Meo-PEG-b-P(DPA-co-GMA) [PDPA60-GMA5]		6.29
Meo-PEG-b-P(DPA-co-GMA) [PDPA40-GMA5]		6.34
Meo-PEG113-b-P(DPA80-co-GMA5) [PDPA80-GMA5]		6.24
Meo-PEG-b-P(DPA-co-GMA) [PDPA70-GMA5]		6.26
Meo-PEG-b-P(DPA-co-GMA) [PDPA100-GMA5]		6.21
Meo-PEG-b-P(DPA-co-GMA-R10)		6.31

The remaining lines, values ahead:

pKa of polymer	pKa	Substance
6.26		Meo-PEG-b-P(DPA-co-GMA-TEPA-C14) [PDPA70]
6.31		Meo-PEG-b-P(DPA-co-GMA-TEPA-C14) [PDPA50]
6.29		Meo-PEG-b-P(DPA-co-GMA-TEPA-C14) [PDPA60]
6.34		Meo-PEG-b-P(DPA-co-GMA-TEPA-C14) [PDPA40]
